According to ChEMBL document CHEMBL2429761, “Discovery of ML314, a Brain Penetrant Non-Peptidic β-Arrestin Biased Agonist of the Neurotensin NTR1 Receptor” (ACS Med Chem Lett, 2013):

Tests used:
[1] = biological target: T1, Neurotensin receptor type 1 (Homo sapiens, UniProt P30989); assay: Agonist activity at NTR1 (unknown origin) expressed in human U2OS cells coexpressing beta-arrestin by GFP reporter gene assay; assay type: cell-based
[2] = biological target: G-protein coupled receptor 35 (Homo sapiens, UniProt Q9HC97); assay: Agonist activity at GPR35 (unknown origin) expressed in human U2OS cells coexpressing beta-arrestin by GFP reporter gene assay; assay type: cell-based
Chain of G-protein coupled receptor 35 (Q9HC97 whole entry): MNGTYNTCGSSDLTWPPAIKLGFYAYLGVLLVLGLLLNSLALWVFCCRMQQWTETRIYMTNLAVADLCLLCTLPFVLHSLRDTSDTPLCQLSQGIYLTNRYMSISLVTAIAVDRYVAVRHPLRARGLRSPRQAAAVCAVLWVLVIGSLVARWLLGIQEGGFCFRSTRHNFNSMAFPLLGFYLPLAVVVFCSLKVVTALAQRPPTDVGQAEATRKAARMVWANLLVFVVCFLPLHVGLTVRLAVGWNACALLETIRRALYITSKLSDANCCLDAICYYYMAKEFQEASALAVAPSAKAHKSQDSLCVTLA

[3] = biological target: Neurotensin receptor type 2 (Homo sapiens, UniProt O95665); assay: Agonist activity at NTR2 (unknown origin) expressed in human U2OS cells coexpressing beta-arrestin by GFP reporter gene assay; assay type: cell-based
Chain of Neurotensin receptor type 2 (O95665 whole entry): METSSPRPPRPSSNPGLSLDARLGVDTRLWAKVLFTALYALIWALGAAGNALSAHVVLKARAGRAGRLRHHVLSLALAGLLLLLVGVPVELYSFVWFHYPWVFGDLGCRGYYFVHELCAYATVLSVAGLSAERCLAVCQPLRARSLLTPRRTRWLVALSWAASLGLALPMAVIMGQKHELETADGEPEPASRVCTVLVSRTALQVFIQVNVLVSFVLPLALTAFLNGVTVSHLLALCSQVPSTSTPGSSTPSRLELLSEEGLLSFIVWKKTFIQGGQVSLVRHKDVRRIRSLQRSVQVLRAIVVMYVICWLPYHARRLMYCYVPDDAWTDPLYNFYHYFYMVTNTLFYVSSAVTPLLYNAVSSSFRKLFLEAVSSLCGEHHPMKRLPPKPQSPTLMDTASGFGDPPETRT

[4] = biological target: T1, Neurotensin receptor type 1; assay: Agonist activity at NTR1 (unknown origin) expressed in CHOK1 cells by beta-arrestin assay; assay type: cell-based, CHO-K1
[5] = biological target: T1, Neurotensin receptor type 1; assay: Agonist activity at NTR1 (unknown origin) expressed in CHO cells assessed as stimulation of calcium flux relative to neurotensin (8 to 13); assay type: functional, cell-based
[6] = biological target: T1, Neurotensin receptor type 1
Description: Displacement of [125I]-neurotensin from NTR1 in HUVEC after 1 hr by gamma counting analysis

[7] = biological target: T1, Neurotensin receptor type 1; assay: Antagonist activity at NTR1 (unknown origin) expressed in human U2OS cells coexpressing beta-arrestin assessed as inhibition of ML314-induced effect by GFP reporter gene assay

T1 sequence (P30989 whole entry): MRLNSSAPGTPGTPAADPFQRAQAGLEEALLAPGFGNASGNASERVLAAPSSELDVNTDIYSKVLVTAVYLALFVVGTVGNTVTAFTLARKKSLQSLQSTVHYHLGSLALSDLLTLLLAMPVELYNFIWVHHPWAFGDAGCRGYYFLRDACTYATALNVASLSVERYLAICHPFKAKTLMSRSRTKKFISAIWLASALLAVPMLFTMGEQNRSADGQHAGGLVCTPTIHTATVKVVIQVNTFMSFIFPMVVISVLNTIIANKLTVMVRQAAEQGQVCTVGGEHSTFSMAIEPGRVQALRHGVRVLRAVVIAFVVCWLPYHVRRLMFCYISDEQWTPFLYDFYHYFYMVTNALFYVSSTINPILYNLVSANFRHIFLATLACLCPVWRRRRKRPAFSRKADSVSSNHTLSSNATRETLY

Structure (SMILES) | EC50 [1] | EC50 [2] | EC50 [3] | EC50 [4] | Emax [5] | IC50 [6] | IC50 [7]
COc1cc2nc(C3CCC3)nc(N3CCN(c4ccccn4)CC3)c2cc1OC | 26 µM | > 40 µM | > 80 µM |  |  |  | 
CCOc1cc2c(N3CCN(c4ccccc4[N+](=O)[O-])CC3)nc(-c3ccccc3)nc2cc1OC | 75 µM | > 40 µM | > 80 µM |  |  |  | 
COc1cc2nc(C3CCC3)nc(N3CCN(c4ccccc4)CC3)c2cc1OC | 12 µM | > 40 µM | > 80 µM |  |  |  | 
COc1cc2nc(C3CCC3)nc(N3CCN(c4ccccc4F)CC3)c2cc1OC | 18 µM | > 40 µM | > 80 µM |  |  |  | 
COc1cc2nc(C3CC3)nc(N3CCN(S(=O)(=O)c4ccccc4)CC3)c2cc1OC | > 80 µM | > 40 µM | > 80 µM |  |  |  | 
COc1ccccc1N1CCN(c2nc(C3CCC3)nc3cc4c(cc23)OCO4)CC1 |  | > 40 µM | > 80 µM |  |  |  | 
COc1cc2nc(C3CCC3)nc(N3CCN(c4ccccc4Cl)CC3)c2cc1OC | 12 µM | > 40 µM | > 80 µM |  |  |  | 
COc1cc2nc(C3CC3)nc(N3CCN(C(=O)c4ccccc4)CC3)c2cc1OC |  | > 40 µM | > 80 µM |  |  |  | 
CCc1nc(N2CCN(c3ccccc3OC)CC2)c2cc(OC)c(OC)cc2n1 |  | > 40 µM | > 80 µM |  |  |  | 
COc1cccc(OC)c1-c1cc(C(=O)N[C@@H](CC(C)C)C(=O)O)nn1-c1ccnc2cc(Cl)ccc12 | 0.75 µM |  |  | > 33 µM | 63% |  | 
COc1cc2nc(C3CCCC3)nc(N3CCN(c4ccccc4OC)CC3)c2cc1OC |  | > 40 µM | > 80 µM |  |  |  | 
COc1cc2nc(-c3ccccc3)nc(N3CCN(c4ccccc4)CC3)c2cc1OC | > 80 µM | > 40 µM | > 80 µM |  |  |  | 
CCOc1cc2c(N3CCN(c4ccccc4F)CC3)nc(-c3ccccc3)nc2cc1OC | > 80 µM | > 40 µM | > 80 µM |  |  |  | 
COc1cc2nc(C3CC3)nc(N3CCN(c4ccccc4Cl)CC3)c2cc1OC |  | > 40 µM | > 80 µM |  |  |  | 
COc1cc2nc(CC3CC3)nc(N3CCN(c4ccccc4OC)CC3)c2cc1OC | 14 µM | > 40 µM | > 80 µM |  |  |  | 
COc1cc2nc(C3CC3)nc(N3CCN(C(=O)c4ccccc4OC)CC3)c2cc1OC |  | > 40 µM | > 80 µM |  |  |  | 
CCCc1nc(N2CCN(c3ccccc3OC)CC2)c2cc(OC)c(OC)cc2n1 | 17 µM | > 40 µM | > 80 µM |  |  |  | 
COc1cc2nc(-c3ccccc3)nc(N3CCN(c4ccccc4F)CC3)c2cc1OC | > 80 µM | > 40 µM | > 80 µM |  |  |  | 
COc1ccc2nc(C3CCC3)nc(N3CCN(c4ccccc4OC)CC3)c2c1 |  | > 40 µM | > 80 µM |  |  |  | 
COc1ccc2c(N3CCN(c4ccccc4OC)CC3)nc(C3CCC3)nc2c1 |  | > 40 µM | > 80 µM |  |  |  | 
COc1ccccc1N1CCN(c2nc(C3CCC3)nc3ccccc23)CC1 | 23 µM | > 40 µM | > 80 µM |  |  |  | 

Structure (SMILES) | EC50 [1] | EC50 [2] | EC50 [3] | EC50 [4] | Emax [5] | IC50 [6] | IC50 [7]
COc1cc2nc(-c3ccccc3)nc(N3CCN(c4ccccc4Cl)CC3)c2cc1OC | > 80 µM | > 40 µM | > 80 µM |  |  |  | 
COc1cc2nc(-c3ccccc3)nc(N3CCN(c4ccc(F)cc4)CC3)c2cc1OC |  | > 40 µM | > 80 µM |  |  |  | 
COc1cccc(OC)c1-c1cc(C(=O)NC2(C(=O)O)C3CC4CC(C3)CC2C4)nn1-c1ccc(C(=O)N(C)CCCN(C)C)cc1C(C)C (stereo unspecified) |  |  |  |  |  | 0.00024 µM | 0.0501 µM
COc1cc2nc(-c3ccccc3)nc(N3CCN(c4ccccc4OC)CC3)c2cc1OC |  | > 40 µM | > 80 µM |  |  |  | 
COc1ccccc1CN1CCN(c2nc(C3CC3)nc3cc(OC)c(OC)cc23)CC1 |  | > 40 µM | > 80 µM |  |  |  | 
CCOc1ccccc1N1CCN(c2nc(C3CC3)nc3cc(OC)c(OC)cc23)CC1 |  | > 40 µM | > 80 µM |  |  |  | 
COc1cc2nc(Cc3ccccc3)nc(N3CCN(c4ccccc4OC)CC3)c2cc1OC | 14 µM | > 40 µM | > 80 µM |  |  |  | 
COc1cc2nc(CCN(C)C)nc(N3CCN(c4ccccc4OC)CC3)c2cc1OC | > 80 µM | > 40 µM | > 80 µM |  |  |  | 
COc1cc2nc(C3CCC3)nc(N3CCN(c4ccccc4OC)CC3)c2cc1OC |  | > 40 µM | > 80 µM |  |  |  | 
COc1cc2ncnc(N3CCN(c4ccccc4OC)CC3)c2cc1OC | > 80 µM | > 40 µM | > 80 µM |  |  |  | 
C=Cc1nc(N2CCN(c3ccccc3OC)CC2)c2cc(OC)c(OC)cc2n1 |  | > 40 µM | > 80 µM |  |  |  | 
COc1cc2nc(C(C)C)nc(N3CCN(c4ccccc4OC)CC3)c2cc1OC | 8 µM | > 40 µM | > 80 µM |  |  |  | 
COc1cc2nc(C3CC3)nc(N3CCNCC3)c2cc1OC | > 80 µM | > 40 µM | > 80 µM |  |  |  | 
COc1ccc2nc(C3CC3)nc(N3CCN(c4ccccc4OC)CC3)c2c1 |  | > 40 µM | > 80 µM |  |  |  | 
COc1cc2nc(C3CC3)nc(N3CCN(Cc4ccc(C)cc4)CC3)c2cc1OC |  | > 40 µM | > 80 µM |  |  |  | 
COc1cc2nc(C)nc(N3CCN(c4ccccc4OC)CC3)c2cc1OC | > 80 µM | > 40 µM | > 80 µM |  |  |  | 
COc1cc2nc(CCN3CCN(c4ccccc4OC)CC3)nc(N3CCN(c4ccccc4OC)CC3)c2cc1OC |  | > 40 µM | > 80 µM |  |  |  | 
CCOc1cc2c(N3CCN(c4ccccc4OC)CC3)nc(-c3ccccc3)nc2cc1OC | > 80 µM | > 40 µM | > 80 µM |  |  |  | 
COc1cc2nc(CC(C)C)nc(N3CCN(c4ccccc4OC)CC3)c2cc1OC |  | > 40 µM | > 80 µM |  |  |  | 
COc1cc2nc(C3CCC3)nc(N3CCN(c4ccccc4C)CC3)c2cc1OC |  | > 40 µM | > 80 µM |  |  |  | 
CCOc1cc2c(N3CCN(c4ccccc4)CC3)nc(-c3ccccc3)nc2cc1OC | > 80 µM | > 40 µM | > 80 µM |  |  |  | 
